These results are taken from patent US20140017157A1, “ANTITUMOR AGENT COMPRISING CARBON DIOXIDE AS AN ACTIVE INGREDIENT” (NEOCHEMIR INC., priority 2011, published 2014).

The test system of data set [1] is breast carcinoma cell line MDA-MB-231. As to the kind of experiment: Antitumor effects (4) of a single dose against the implanted tumors in nude mice (Example 7). It is filed as in vivo. Conditions: 3rd day after starting of the treatment; single treatment (CO2 10 minutes; adriamycin 3 mg/kg); FIG. 14. On the procedure: (§1) A breast carcinoma cell line MDA-MB-231, which is […], was subcutaneously implanted in the back of the 23 nude mice of 5 weeks old at 20 million cells/mouse. On the 18th day after the implantation, body weight and tumor volume of each nude mouse were measured. The mice were divided into the following 4 groups so that the variation in tumor volumes and body weights are reduced. The treatment was done according to Example 1 (Table 8), but only once.
Tumor volume was calculated by the following equation: (Maximum diameter of implanted tumor mass)×(Minimum diameter of implanted tumor mass)×(Minimum diameter of implanted tumor mass)×½. The measurement of tumor volume was done on the 3rd day after starting of the treatment.

Data set [2] concerns cell line NaraH. As to the kind of experiment: Antitumor effects (3) against the implanted tumors in nude mice, two regimens (Example 3). Conditions: t-test. It is filed as in vivo. On the procedure: An MPH cell line NaraH, which is the cell line of a malignant soft tissue tumor, was subcutaneously implanted in the back of the 20 nude mice of 5 weeks old at 12 million cells/mouse. After the implantation, body weight and tumor volume were measured. The mice were divided into the following 3 groups so that the variation in tumor volumes and body weights are reduced. The treatment according to Example 1 was started on the 3rd day after the implantation (Table 1).
The treatment was done for 16 days. Tumor volume was calculated by the following equation: (Maximum diameter of implanted tumor mass)×(Minimum diameter of implanted tumor mass)×(Minimum diameter of implanted tumor mass)×½. The measurement of tumor volume was done on the 3rd, 7th, 10th, 14th and 16th day after tumor implantation.

The test system of data set [3] is cell line NaraH. As to the kind of experiment: Combined effects with a chemotherapeutic agent against the implanted tumors in nude mice (Example 4). It counts as in vivo. Conditions: t-test; for tumor volume compared to the control group: adriamycin 6 mg/kg, CO2 twice-weekly; for Significance level for control group (tumor volume): P. On the procedure:
A cell line NaraH, which is the cell line of a malignant soft tissue tumor, was subcutaneously implanted in the back of the 17 nude mice of 5 weeks old at 12 million cells/mouse. After the implantation, body weight and tumor volume of each nude mouse were measured. The mice were divided into the following 3 groups so that the variation in tumor volumes and body weights are reduced. The treatment according to Example 1 was started on the 3rd day after the implantation (Table 2).
The treatment was done for 9 days. Tumor volume was calculated by the following equation: (Maximum diameter of implanted tumor mass)×(Minimum diameter of implanted tumor mass)×(Minimum diameter of implanted tumor mass)×½. The measurement of tumor volume was done on the 3rd, 7th and 9th day after tumor implantation.

For data set [4], the system named is MDA-MB-231. Description: Combined effects with a chemotherapeutic agent against the implanted malignant breast carcinoma in nude mice (Example 5). It counts as in vivo. The following applies: t-test; for tumor volume compared to the control group: 15th day after tumor implantation (so in the source), adriamycin 4 mg/kg; for Significance level for control group (tumor volume): P, 15th day, Table 6. On the procedure: (§2) MDA-MB-231, a cell line of a malignant breast carcinoma, was subcutaneously implanted in the back of the 18 nude mice of 5 weeks old at 12 million cells/mouse. On the 53rd day after the implantation, body weight and tumor volume of each nude mouse were measured. The mice were divided into the following 4 groups so that the variation in tumor volumes and body weights are reduced. The treatment was done according to Example 1 (Table 5).
The starting date of the test was defined as the 0 day and each treatment was done on the 1st, 5th, 8th, 12th and 15th day. Tumor volume was calculated by the following equation: (Maximum diameter of implanted tumor mass)×(Minimum diameter of implanted tumor mass)×(Minimum diameter of implanted tumor mass)×½. The measurement of tumor volume was done on the 8th and 15th day after tumor implantation. The measurement of body weights of the nude mice as an indication of a side effect was done on the 8th and 15th day after tumor implantation.

Data set [5] relates to MFH cell line NaraH. As to the kind of experiment: Antitumor effects (1) against the implanted tumors in nude mice (Example 1). It is filed as in vivo. On the procedure: An MFH cell line NaraH, which is the cell line of a malignant soft tissue tumor, was subcutaneously implanted in the back of the 10 nude mice of 5 weeks old at 12 million cells/mouse. After the implantation, body weight and tumor volume of each nude mouse were measured. The mice were divided into two groups so that the variation in tumor volumes and body weights are reduced. That is, one is carbon dioxide absorption group and the other is control group treated in the same way as carbon dioxide absorption group but without the carbon dioxide absorption treatment. A treatment was started on the 2nd day after the implantation. After anesthetizing all groups by ether inhalation, the treatment was done according to the patent document 7, that is, an absorption aid for carbon dioxide comprising 93.77% by mass of water, 5% by mass of glycerin, 0.65% by mass of carbomer, 0.15% by mass of sodium alginate, 0.15% by mass of sodium dihydrogen phosphate, 0.18% by mass of sodium hydroxide and 0.10% by mass of methylparaben was applied 2 mm thick to the dorsal skin wherein a tumor has been implanted. […] Tumor volume was calculated by the following equation: (Maximum diameter of implanted tumor mass)×(Minimum diameter of implanted tumor mass)×(Minimum diameter of implanted tumor mass)×[…]. […]

A short description of data set [6]: Body weight as an indicator of the side effect after a single dose (Example 7). It is filed as in vivo, nude mice. Conditions: single treatment (CO2 10 minutes; adriamycin 3 mg/kg); FIG. 15. On the procedure: as §1
Data set [7] concerns MFH cell line NaraH. Description: Antitumor effects (2) against the implanted tumors in nude mice (Example 2). It counts as in vivo. On the procedure: An MFH cell line NaraH, which is the cell line of a malignant soft tissue tumor, was subcutaneously implanted in the back of the 12 nude mice of 5 weeks old at 12 million cells/mouse. After the implantation, body weight and tumor volume of each nude mouse were measured. The mice were divided into 2 groups so that the variation in tumor volumes and body weights are reduced. That is, one is carbon dioxide absorption group and the other is control group treated in the same way as carbon dioxide absorption group but without the carbon dioxide absorption treatment. The treatment according to Example 1 was started on the 3rd day after the implantation. The carbon dioxide absorption was done twice-weekly and the treatment was done for 14 days. The carbon dioxide absorption was done a total of 3 times. Tumor volume was calculated by the following equation: (Maximum diameter of implanted tumor mass)×(Minimum diameter of implanted tumor mass)×(Minimum diameter of implanted tumor mass)×½. The measurement of tumor volume was done on the 3rd, 7th, 10th and 14th day after the tumor implantation.

The subject of data set [8] is cell line LM-8. As to the kind of experiment: Effects against the implanted highly lung-metastatic tumors in nude mice (Example 8). It is filed as in vivo. On the procedure:
A cell line LM-8, which is the cell line of a highly lung-metastatic tumor, was subcutaneously implanted in the back of the 11 nude mice of 5 weeks old at 1 million cells/mouse. On the 3rd day after the implantation, body weight and tumor volume of each nude mouse were measured. The mice were divided into two groups so that the variation in tumor volumes and body weights are reduced. That is, one is carbon dioxide absorption group (6 mice) and the other is control group (5 mice) treated in the same way as the carbon dioxide absorption group but without the carbon dioxide absorption treatment. The treatment according to Example 1 was started on the 3rd day after the implantation. The carbon dioxide absorption was done three times-weekly and the treatment was done for 14 days. The carbon dioxide absorption was done a total of 6 times. Tumor volume was calculated by the following equation: (Maximum diameter of implanted tumor mass)×(Minimum diameter of implanted tumor mass)×(Minimum diameter of implanted tumor mass)×½. The measurement of tumor volume was done on the 3rd, 7th, 10th, 14th, 17th and 21st day after the tumor implantation. On the 21st day after the tumor implantation, a lung of each mouse was isolated and the lung weight was measured. The cross-sections of the lung, where the metastasized tumor have been stained by hematoxylin and eosin, were chosen at random and a proportion of the stained area in the cross-section was analyzed by using an image analyzing software ImageJ to obtain the lung metastasis rate of the tumor.

Data set [9] is described as follows: Body weight of tumor-bearing nude mice as an indication of a side effect (Example 5). It counts as in vivo. Conditions: FIG. 12; for weight reduction as an indicator of a side effect compared to the control group: adriamycin 4 mg/kg. On the procedure: as §2, with “5). […] The starting date of the test was defined as the 0 day and each treatment was done on the 1st, 5th, 8th, 12th and 15th day. Tumor volume was calculated by the following equation: (Maximum diameter of implanted tumor mass)×(Minimum diameter of implanted tumor mass)×(Minimum diameter of implanted tumor mass)×½. The measurement of tumor volume was done on the 8th and 15th day after tumor implantation. The measurement of body weights of the nude mice as an indication of a side effect was done on the 8th and 15th day after tumor implantation.” for “5).”

Setting [10] is: 7th day after tumor implantation.
Where [11] appears, read: 9th day after tumor implantation.
Where [12] appears, read: 7th day after tumor implantation, Table 3.
[13] abbreviates: 9th day after tumor implantation, Table 4.
[14] abbreviates: 14 days treatment, twice-weekly CO2 absorption.

Each structure is given as a SMILES string.

On to `O=C=O` [carbon dioxide], for which the “tumor volume relative to initial volume” value in [1] is reported as “reduced to two-thirds of initial volumes”. For the same compound, the “tumor volume compared to the control group” value is given as “statistically significantly reduced” in [2] (group of 5 times-weekly administration early in treatment (5 consecutive days from first day), FIG. 4); “statistically significantly reduced” in [2] (group of twice-weekly administration, treatment 16 days, FIG. 3); “statistically significantly reduced” in data set [3] (setting [10]); “statistically significantly reduced” in data set [3] (setting [11]); “statistically significantly reduced” in data set [4]; “statistically significantly reduced” in data set [5] (16th day after tumor implantation, transdermal CO2 absorption 10 minutes, twice-weekly, total of 4 times, t-test, FIG. 1). Also, the “tumor volume compared to the control group” value in data set [7] (14th day after tumor implantation, twice-weekly, total of 3 times, t-test, FIG. 2) is listed as “statistically significantly reduced”. The “Significance level for control group (tumor volume)” value in data set [3] (setting [12]) is “P < 0.001”; in [3] (setting [13]), “P < 0.05”; in data set [4], “P < 0.001”. Also, the “deaths during the experiment period” value in data set [5] (setting [14]) and in data set [8] (CO2 three times-weekly for 14 days) was “no deaths” in each case. Further, the “body weight reduction as an indicator of the side effect” value in [6] was “not observed”. The “deaths during experimental period” value in data set [7] (setting [14]) is listed as “no deaths”. In addition, in [8] (21st day after tumor implantation, CO2 three times-weekly, total of 6 times, t-test, FIG. 16), the “lung weights compared to the control group” value is “statistically significantly reduced”. Further, the “lung metastasis rates compared to the control group” value in data set [8] (21st day after tumor implantation, proportion of stained area in lung cross-section, t-test, FIG. 17) is “statistically significantly reduced”. Moreover, in [8] (21st day, t-test, FIG. 16), the “significance level (P) of lung weight reduction compared to the control group” value was < 0.05. The “significance level (P) of lung metastasis rate reduction compared to the control group” value in data set [8] (21st day, t-test, FIG. 17) is reported as < 0.05. Besides, in data set [8] (CO2 three times-weekly, total of 6 times, t-test, FIG. 18), the “subcutaneously-implanted tumor volumes compared to the control group” value is on record as “statistically significantly reduced”. In addition, the “significance level (P) of subcutaneously-implanted tumor volume reduction compared to the control group” value in data set [8] (t-test, FIG. 18) was < 0.05. The “weight reduction as an indicator of a side effect compared to the control group” value in data set [9] is on record as “significant weight reduction was not found”.
Regarding `COc1cccc2c1C(=O)c1c(O)c3c(c(O)c1C2=O)C[C@@](O)(C(=O)CO)C[C@@H]3O[C@H]1C[C@H](N)[C@H](O)[C@H](C)O1` [chemotherapeutic agent, adriamycin, reference compound], in data set [1], the “tumor volume relative to initial volume” value is given as “not changed”. Also, the “tumor volume compared to the control group” value in [3] (setting [10]), in data set [3] (setting [11]) and in [4] was “statistically significantly reduced” each time. The “Significance level for control group (tumor volume)” value in data set [3] (setting [12]) was “P < 0.005”; in data set [3] (setting [13]), “P < 0.05”; in data set [4], “P < 0.005”. For the same compound, the “body weight reduction as an indicator of the side effect” value in data set [6] was “reduced”. In addition, the “significance level (P) of weight reduction compared to the carbon dioxide-alone group” value in [9] is reported as < 0.05. Also, the “weight reduction compared to the carbon dioxide-alone group” value in data set [9] was “Significant weight reduction was found”. Besides, the “weight reduction as an indicator of a side effect compared to the control group” value in data set [9] was “statistically significant”.
